Assay: xn = mol fraction of the nth substance listed
Details: 100 kPa, Liquid; for speed of sound: Pulse-echo method; for mass density: Vibrating tube method

CNc1ccccc1 [N-methylaniline] + C1CCCCC1
Details	mass density [kg/m3]	speed of sound [m/s]
293.15 K, x1 = 0.0516	787.947	1285.7
293.15 K, x1 = 0.1047	798.075	1294.4
293.15 K, x1 = 0.1522	807.416	1303
293.15 K, x1 = 0.2023	817.479	1313.2
293.15 K, x1 = 0.2482	826.755	1322.9
293.15 K, x1 = 0.3018	837.718	1335.3
293.15 K, x1 = 0.3462	846.906	1346.3
293.15 K, x1 = 0.4049	859.091	1362
293.15 K, x1 = 0.4478	868.011	1374.1
293.15 K, x1 = 0.4972	878.435	1389.1
293.15 K, x1 = 0.5444	888.383	1404.1
293.15 K, x1 = 0.5942	898.936	1420.7
293.15 K, x1 = 0.6445	909.64	1438.3
293.15 K, x1 = 0.6931	920.029	1456
293.15 K, x1 = 0.7564	933.633	1480.3
293.15 K, x1 = 0.7917	941.225	1494.2
293.15 K, x1 = 0.8372	951.07	1512.7
293.15 K, x1 = 0.89	962.5	1534.8
293.15 K, x1 = 0.9446	974.383	1558.2
298.15 K, x1 = 0.0673	786.236	1264.5
298.15 K, x1 = 0.1073	793.946	1271.7
298.15 K, x1 = 0.1609	804.548	1282
298.15 K, x1 = 0.2065	813.772	1291.8
298.15 K, x1 = 0.2536	823.353	1302.3
298.15 K, x1 = 0.2963	832.165	1312.6
298.15 K, x1 = 0.3554	844.401	1327.8
298.15 K, x1 = 0.3981	853.363	1339.6
298.15 K, x1 = 0.4479	863.765	1354
298.15 K, x1 = 0.5055	875.962	1371.8
298.15 K, x1 = 0.5537	886.222	1387.5
298.15 K, x1 = 0.5968	895.414	1402.5
298.15 K, x1 = 0.6482	906.388	1420.6
298.15 K, x1 = 0.6939	916.254	1437.6
298.15 K, x1 = 0.753	928.945	1460.4
298.15 K, x1 = 0.795	938.08	1477.2
298.15 K, x1 = 0.8347	946.748	1493.6
298.15 K, x1 = 0.8896	958.645	1516.7
298.15 K, x1 = 0.9399	969.599	1538.5
303.15 K, x1 = 0.0581	779.854	1239.8
303.15 K, x1 = 0.1038	788.651	1248.4
303.15 K, x1 = 0.1557	798.906	1258.8
303.15 K, x1 = 0.2015	808.134	1268.8
303.15 K, x1 = 0.2526	818.565	1280.6
303.15 K, x1 = 0.2975	827.884	1291.7
303.15 K, x1 = 0.3479	838.328	1304.9
303.15 K, x1 = 0.3974	848.695	1318.7
303.15 K, x1 = 0.451	859.961	1334.5
303.15 K, x1 = 0.5005	870.442	1351.5
303.15 K, x1 = 0.5512	881.294	1366.7
303.15 K, x1 = 0.5922	890.064	1380.8
303.15 K, x1 = 0.6575	904.033	1404.2
303.15 K, x1 = 0.6956	912.351	1418.6
303.15 K, x1 = 0.7501	924.185	1439.9
303.15 K, x1 = 0.7995	934.921	1459.7
303.15 K, x1 = 0.8447	944.844	1478.6
303.15 K, x1 = 0.8956	955.901	1500
303.15 K, x1 = 0.9411	965.875	1520

CNc1ccccc1 [N-methylaniline] + CCCCCCC
Details	mass density [kg/m3]	speed of sound [m/s]
293.15 K, x1 = 0.054	695.999	1164.1
293.15 K, x1 = 0.1084	708.778	1177.2
293.15 K, x1 = 0.1536	719.814	1188.4
293.15 K, x1 = 0.2	731.341	1200
293.15 K, x1 = 0.2556	745.704	1214.5
293.15 K, x1 = 0.2976	756.81	1226.1
293.15 K, x1 = 0.3473	770.261	1240.6
293.15 K, x1 = 0.3944	783.41	1255.2
293.15 K, x1 = 0.4485	798.879	1273.5
293.15 K, x1 = 0.4953	812.615	1291
293.15 K, x1 = 0.5355	824.725	1306.9
293.15 K, x1 = 0.599	844.458	1335
293.15 K, x1 = 0.6436	858.711	1356.6
293.15 K, x1 = 0.7024	878.07	1387.7
293.15 K, x1 = 0.7457	892.769	1412.5
293.15 K, x1 = 0.7858	906.675	1436.7
293.15 K, x1 = 0.8459	928.153	1474.7
293.15 K, x1 = 0.8952	946.22	1507.9
293.15 K, x1 = 0.9491	966.608	1545.5
298.15 K, x1 = 0.0577	692.58	1143.9
298.15 K, x1 = 0.1072	704.27	1156.2
298.15 K, x1 = 0.1473	713.999	1166.3
298.15 K, x1 = 0.2055	728.558	1181.4
298.15 K, x1 = 0.2595	742.491	1193.9
298.15 K, x1 = 0.3033	754.107	1208.3
298.15 K, x1 = 0.3401	764.024	1219.2
298.15 K, x1 = 0.3955	779.471	1236.7
298.15 K, x1 = 0.4559	796.765	1257.6
298.15 K, x1 = 0.503	810.692	1275.5
298.15 K, x1 = 0.5431	822.843	1291.9
298.15 K, x1 = 0.5956	839.178	1315.3
298.15 K, x1 = 0.6441	854.671	1338.8
298.15 K, x1 = 0.6995	872.931	1368.1
298.15 K, x1 = 0.7491	889.715	1396.2
298.15 K, x1 = 0.7964	906.279	1425.1
298.15 K, x1 = 0.8446	923.55	1455.9
298.15 K, x1 = 0.8949	942.036	1489.6
298.15 K, x1 = 0.9465	961.528	1525.6
303.15 K, x1 = 0.0615	689.386	1124.9
303.15 K, x1 = 0.1111	701.082	1137.5
303.15 K, x1 = 0.1548	711.723	1148.8
303.15 K, x1 = 0.2069	724.76	1162.6
303.15 K, x1 = 0.2501	735.88	1174.4
303.15 K, x1 = 0.2964	748.035	1187.5
303.15 K, x1 = 0.348	762.057	1203.2
303.15 K, x1 = 0.3979	775.964	1219.2
303.15 K, x1 = 0.4513	791.356	1238
303.15 K, x1 = 0.5003	805.793	1256.5
303.15 K, x1 = 0.5583	823.48	1280.8
303.15 K, x1 = 0.5988	836.196	1299.2
303.15 K, x1 = 0.647	851.618	1322.6
303.15 K, x1 = 0.7026	869.963	1351.9
303.15 K, x1 = 0.7475	885.221	1377.4
303.15 K, x1 = 0.7954	901.919	1406.3
303.15 K, x1 = 0.8446	919.525	1437.5
303.15 K, x1 = 0.8917	936.846	1468.8
303.15 K, x1 = 0.9404	955.244	1502.4

CNc1ccccc1 [N-methylaniline] + Cc1ccccc1
Details	mass density [kg/m3]	speed of sound [m/s]
293.15 K, x1 = 0.0541	873.9	1339.3
293.15 K, x1 = 0.0986	879.611	1350.5
293.15 K, x1 = 0.1502	886.145	1363.2
293.15 K, x1 = 0.1989	892.268	1375.1
293.15 K, x1 = 0.2473	898.297	1387
293.15 K, x1 = 0.2982	904.623	1399.7
293.15 K, x1 = 0.35	910.972	1412.6
293.15 K, x1 = 0.3898	915.862	1422.7
293.15 K, x1 = 0.446	922.654	1436.8
293.15 K, x1 = 0.4872	927.615	1447.3
293.15 K, x1 = 0.5426	934.227	1461.5
293.15 K, x1 = 0.5859	939.349	1472.7
293.15 K, x1 = 0.6441	946.179	1487.8
293.15 K, x1 = 0.6894	951.429	1499.7
293.15 K, x1 = 0.7385	957.096	1512.7
293.15 K, x1 = 0.7823	962.1	1524.3
293.15 K, x1 = 0.8377	968.392	1539.6
293.15 K, x1 = 0.8834	973.522	1551.3
293.15 K, x1 = 0.9299	978.698	1563.7
298.15 K, x1 = 0.0532	869.146	1317.9
298.15 K, x1 = 0.0998	875.098	1329.6
298.15 K, x1 = 0.1518	881.77	1342.7
298.15 K, x1 = 0.1906	886.675	1352.4
298.15 K, x1 = 0.2452	893.525	1366
298.15 K, x1 = 0.2887	898.955	1377
298.15 K, x1 = 0.3417	905.492	1390.3
298.15 K, x1 = 0.39	911.437	1402.7
298.15 K, x1 = 0.4434	917.945	1416.3
298.15 K, x1 = 0.49	923.58	1428.3
298.15 K, x1 = 0.5415	929.747	1441.7
298.15 K, x1 = 0.5792	934.236	1451.5
298.15 K, x1 = 0.6432	941.787	1468.4
298.15 K, x1 = 0.6868	946.88	1479.9
298.15 K, x1 = 0.7407	953.128	1494.3
298.15 K, x1 = 0.7823	957.907	1505.4
298.15 K, x1 = 0.8378	964.233	1520.4
298.15 K, x1 = 0.8844	969.501	1533
298.15 K, x1 = 0.934	975.057	1546.4
303.15 K, x1 = 0.053	864.574	1297.3
303.15 K, x1 = 0.0982	870.409	1308.8
303.15 K, x1 = 0.1501	877.091	1321.9
303.15 K, x1 = 0.1929	882.501	1332.7
303.15 K, x1 = 0.2456	889.168	1346.1
303.15 K, x1 = 0.2837	893.953	1355.7
303.15 K, x1 = 0.3444	901.518	1371.2
303.15 K, x1 = 0.3919	907.37	1383.4
303.15 K, x1 = 0.4478	914.21	1397.8
303.15 K, x1 = 0.4918	919.549	1409.3
303.15 K, x1 = 0.5391	925.243	1421.7
303.15 K, x1 = 0.5886	931.18	1434.7
303.15 K, x1 = 0.6395	937.212	1448.2
303.15 K, x1 = 0.6846	942.503	1460.2
303.15 K, x1 = 0.7398	948.933	1475
303.15 K, x1 = 0.7782	953.381	1485.3
303.15 K, x1 = 0.842	960.67	1502.3
303.15 K, x1 = 0.879	964.897	1512.7
303.15 K, x1 = 0.934	971.087	1527.6

— the NIST ThermoML archive (doi:10.1021/je400134d)
